Results as given in patent US9969758B2, “Antimicrobial compounds” (BIOMERIEUX, priority 2014, dated 2018).
≈ marks a conversion by molar mass, not a printed value.

Tested on: K. pneumoniae (87)
Test: MIC by agar dilution
Format: cell-based, Klebsiella pneumoniae
Settings: Klebsiella pneumoniae
Summary of the method: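 Agar dilution on peptone-free medium with 2% lysed horse blood, NAD and hemin (25.0 μg/mL each), compounds 0.0031 to 8.0 μg/mL; inoculum 10 000 CFU/spot, 22 h at 37° C. Fosfomycin tested in IsoSensitest medium plus 25.0 μg/mL glucose-6-phosphate; at least two replicates.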

Question: `C[C@H](N)C(=O)N[C@@H](C)P(=O)(O)O` [Alafosfalin, L-alanyl-L-1-aminoethylphosphonic acid] was tested. Which MIC50 (K. pneumoniae (87), read-out: MIC50) did it give?
Answer: Its MIC50 is 2 mg/L (≈ 10.2 µM).

Question: And the MIC90 (K. pneumoniae (87), read-out: MIC90)?
Answer: The MIC90 was over 8 mg/L.

Question: And the MIC (K. pneumoniae (87), read-out: Modal MIC (most frequent MIC))?
Answer: Its MIC is 2 mg/L (≈ 10.2 µM).

Question: What about the percent of isolates inhibited at 8 µg/mL (K. pneumoniae isolates, at 8 μg/mL, read-out: isolates inhibited) of the same compound?
Answer: The percent of isolates inhibited at 8 µg/mL was 87%.
